Results taken from patent US5753483A (priority 1995, dated 1998).
Entries after “also recorded” stand apart in the source; their conditions may differ. Where two headings read alike, the source gives them in different places. Blank lines part the entries; values can stand above or below the compound they belong to.

Columns and labels:
[1] = biological target: T1, UDP-GlcNAc pyrophosphorylase (Sus scrofa, UniProt F1S210); assay: Photoaffinity labeling of purified pyrophosphorylase and its inhibition (FIG. 5); type: binding, pig; conditions: for labeling of enzyme subunits by probe: UV light, SDS-PAGE
T1 construct: both 64 and 55 kDa bands photolabelled
T1 sequence (F1S210 1-505): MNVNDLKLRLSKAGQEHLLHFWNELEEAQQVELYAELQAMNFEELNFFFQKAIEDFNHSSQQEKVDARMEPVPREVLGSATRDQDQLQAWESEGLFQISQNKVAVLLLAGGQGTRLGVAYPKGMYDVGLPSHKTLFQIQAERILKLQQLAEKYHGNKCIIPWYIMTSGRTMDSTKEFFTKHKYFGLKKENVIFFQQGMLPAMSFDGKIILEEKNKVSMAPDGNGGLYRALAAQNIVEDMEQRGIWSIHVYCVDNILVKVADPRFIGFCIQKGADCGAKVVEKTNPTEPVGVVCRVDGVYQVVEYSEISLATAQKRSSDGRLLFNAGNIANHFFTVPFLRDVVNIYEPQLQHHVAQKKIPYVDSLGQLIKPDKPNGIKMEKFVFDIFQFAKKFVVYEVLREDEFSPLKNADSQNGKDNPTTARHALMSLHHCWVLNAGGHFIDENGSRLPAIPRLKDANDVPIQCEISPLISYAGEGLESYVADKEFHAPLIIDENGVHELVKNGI
Protocol: Enzyme was incubated with radioactive probe in the presence or absence of various inhibitors, and some of the incubations were exposed to UV light to activate the probe. Each incubation was treated with trichloroacetic acid to precipitate the protein, and the pellet was resuspended in SDS and subjected to SDS-PAGE. Radioactive proteins were detected by exposure to film. […]

Pyrophosphorylase [2] = biological target: T2, Pyrophosphorylase (Sus scrofa, UniProt F1S210); assay: Putative inhibitors of pyrophosphorylase; type: biochemical, pig; conditions: for inhibition at 100 µM: 0.1 mM; for inhibition at 1000 µM: 1.0 mM
T2 construct: 64 and 55 kDa bands; native about 125 kDa
T2 sequence (F1S210 1-505): as above
Protocol: A variety of other inhibitors were tested, including various sulfhydryl reagents and metal chelators.

Pyrophosphorylase [3] = biological target: T2, Pyrophosphorylase; assay: Specificity of pyrophosphorylase (reverse direction); type: biochemical, pig; conditions: 5 mM, PP = 1 mM; for Relative Activity: UDP-GalNAc = 100
Protocol: (§1) When measured in the reverse direction, either a direct assay or an indirect assay could be used. […] The incubation mixtures contained the following components in a final volume of 50 μl: 5 mM sodium pyrophosphate, 250 uM UDP-[^3 H]GlcNAc (2.2 Ci/mmol), 100 mM Tris HCl buffer, pH 8.5, 2 mM MgCl2, and various amounts of enzyme at the different stages of purification. […] The suspension was vortexed vigorously for 2 minutes, and was then centrifuged in a microfuge. The supernatant liquid was removed and saved, and the charcoal was washed with 1 ml of water. The supernatant liquid from this wash was combined with the first supernatant liquid, and an aliquot was removed and counted, as a measure of the formation of GlcNAc-1-P.
(§2) For the indirect assay, a modification of the spectrophotometric method of Munch-Petersen, (1956) Acta Chim. Scand. […] The assay mixtures contained 50 mM Tris-HCl buffer, pH 7.5, 1 mM MgCl2, 0.5 mM ADP, 1 mM glucose, 0.5 mM NADP, 1 mM inorganic pyrophosphate, 2 mM UDP-HexNAc and 2.5 units each of nucleoside diphosphate kinase, hexokinase and glucose-6-P dehydrogenase.
(§3) The substrate specificity of the purified enzyme was examined in both the forward and the reverse direction.

Pyrophosphorylase [4] = biological target: T2, Pyrophosphorylase; assay: Specificity of pyrophosphorylase (forward direction); type: biochemical, pig; conditions: for Activity / Relative Activity: sugar phosphate 5 mM, UT = 5 mM; for Relative Activity: GalNAc-1-P = 100
Protocol: (§4) After an incubation of 10 minutes at 37° C., the reaction was terminated by heating the tubes in a boiling water bath for 30 seconds. The amount of product could either be determined by measuring the amount of radioactivity that bound to DE-52 (HCO3 -) after treatment of the reaction mixtures with alkaline phosphatase, or the product could be detected by TLC.
as §3

[5] = test system: UDP-GlcNAc pyrophosphorylase; assay: Kinetic constants, forward direction (sugar-1-P + UTP); type: biochemical, pig
Protocol: as §4

[6] = test system: UDP-GlcNAc pyrophosphorylase from brain; conditions: cited from earlier work
Pyrophosphorylase [7] = biological target: T2, Pyrophosphorylase; assay: Effects of metal ions on pyrophosphorylase activity; type: biochemical, pig; conditions: metal ion 1 mM
Text: Other ions such as Fe^+++, Ca^++ and Hg^++ were ineffective.

[8] = test system: UDP-GlcNAc pyrophosphorylase; conditions: reverse direction
Protocol: as §1, §2

[9] = test system: UDP-GlcNAc pyrophosphorylase; conditions: [^3 H]UTP + GlcNAc-1-P, 2 hours
Protocol: The reaction products, formed in either the forward direction (i.e., uridine diphosphate sugars), or in the reverse direction (i.e., UTP and sugar-i-P's), were isolated by chromatography on a 1×20
column of DEAE-cellulose (HCO3 -), equilibrated in 10 mM NH4 HCO3. After application of the sample, the column was washed with the same solution and the retained products were eluted with 200 ml of a linear 10 to 300 mM gradient of NH4 HCO3. Fractions were analyzed for nucleotides by measuring the absorption at 260 nm, for radioactivity by scintillation counting, and for hexosamine by the Reissig test (J. Biol. Chem., 217, 959-966, 1955) or the or the Elson Morgan assay (Wheat, R. W. (1966) Meth. Enzymol. 8, 60-78). Peak fractions were pooled and concentrated on a rotary evaporator and NH4 H CO3 was removed by evaporation in the presence of triethylamine. The triethylamine was in turn removed by evaporation in the presence of methanol.
The reaction products were identified by chromatography, either directly, or following various treatments such as digestion with phosphodiesterase or alkaline phosphatase, or acid hydrolysis. Nucleotides were identified by TLC in the following systems: PEI plates developed in 0.2M and 0.4M solutions of LiCl; cellulose plates in ethanol: 1M ammonium acetate, pH 7.3 (7:3), or silica gel plates in ethanol: 1M ammonium acetate, pH 5.0 (7:3). N-acetyl-hexosamines were released from nucleotides by mild acid hydrolysis (0.01 N HCl, 100° C., 15 minutes) and identified by chromatography on borate-treated paper in n-butanol:pyridine:water (6:4:3) as described earlier by Cardini and Leloir, (1953) Arch. Biochem. Biophys., 45, 317-324.
After deproteinization, the aqueous phase was applied to a column of DE-52 and sugar phosphates and nucleoside diphosphate sugars were separated with a gradient of NH4 HCO3, as shown in FIG. 4. […] The peak was pooled and subjected to TLC in 3 different solvent systems as described above.
The characterization of these products was also based on the products produced by phosphosdiesterase, mild acid hydrolysis and other treatments.

sheep brain enzyme = conditions: cited from earlier work
[10] = metal chelators, as long as sufficient Mn++ was added
[11] = at 1 mM UTP, read-out: apparant Km
[12] = at 1 mM inorganic pyrophosphate

Compound: 5-azido-salicylic-[^125 I]-allylamine-UDP-GlcNAc [5-azido-ASA-UDP-GlcNAc]
labeling of enzyme subunits by probe [1]: both the 64 kDa and the 55 kDa subunits of the enzyme became labeled with the probe
labeling of enzyme subunits by probe ([1]; listed as [^125 I]-N3 -salicyclic acid-allylamine-UDP-GlcNAc): Both subunits became labeled by this probe and labeling was saturable with increasing concentrations of probe
labeling of enzyme subunits by probe ([1]; listed as azido-[^125 I]-salicyclic acid-allylamine-UDP-GlcNAc): they both become labeled
labeling of GlcNAc transferases by probe (GlcNAc transferases): does label the pyrophosphorylase and some GlcNAc transferases

Compound: Nc1ncnc2c1ncn2[C@@H]1O[C@H](COP(=O)(O)OP(=O)(O)OP(=O)(O)O)[C@@H](O)[C@H]1O [ATP]
inhibition of labeling ([1]; nucleotides): very little inhibition of labeling

Compound: O=C(O)CN(CCN(CC(=O)O)CC(=O)O)CC(=O)O [EDTA]
inhibition at 100 µM (Pyrophosphorylase [2]): 5%
inhibition at 1000 µM (Pyrophosphorylase [2]): 13%
inhibition (in words) (Pyrophosphorylase [2]; [10]): did not inhibit

Compound: O=C(O)CN(CCOCCOCCN(CC(=O)O)CC(=O)O)CC(=O)O [EGTA]
inhibition at 100 µM (Pyrophosphorylase [2]; read-out: Inhibition): 8%
inhibition at 1000 µM (Pyrophosphorylase [2]; read-out: Inhibition): 13%
inhibition (in words) (Pyrophosphorylase [2]; [10]): did not inhibit

Compound: Nc1nc2c(ncn2[C@@H]2O[C@H](COP(=O)(O)OP(=O)(O)O[C@H]3O[C@H](CO)[C@@H](O)[C@H](O)[C@@H]3O)[C@@H](O)[C@H]2O)c(=O)[nH]1 [GDP-mannose]
inhibition of labeling ([1]; even at 1 mM): None of these sugar nucleotides showed any inhibition of the labeling

Compound: Nc1nc2c(ncn2[C@@H]2O[C@H](COP(=O)(O)OP(=O)(O)O)[C@@H](O)[C@H]2O)c(=O)[nH]1 [GDP]
inhibition of labeling ([1]; nucleotides): very little inhibition of labeling

Compound: O=P(O)(O)O[C@H]1O[C@H](CO)[C@H](O)[C@H](O)[C@H]1O [Gal-1-P]
substrate preference, forward direction (Pyrophosphorylase [4]): may act as substrates but to a much lower degree
Activity (Pyrophosphorylase [4]): 0.14 nmol/min
Relative Activity (Pyrophosphorylase [4]): 3%

Compound: N[C@H]1C(OP(=O)(O)O)O[C@H](CO)[C@H](O)[C@@H]1O (stereo partly shown) [GalN-1-P]
Activity (Pyrophosphorylase [4]): 0 nmol/min

Compound: O=P(O)(O)O[C@H]1O[C@H](CO)[C@@H](O)[C@H](O)[C@H]1O [Glc-1-P, glucose-1-P]
substrate preference, forward direction (Pyrophosphorylase [4]): may act as substrates but to a much lower degree
Activity (Pyrophosphorylase [4]): 0.20 nmol/min
Relative Activity (Pyrophosphorylase [4]): 4%
Vmax ([5]; at 1 mM UTP): 1.7 nmol/min
Km [5, 11]: 66600 µM

Compound: N[C@H]1[C@@H](OP(=O)(O)O)O[C@H](CO)[C@@H](O)[C@@H]1O [GlcN-1-P]
Activity (Pyrophosphorylase [4]): 0.10 nmol/min
Relative Activity (Pyrophosphorylase [4]): 2%

Compound: NC(=O)CI [Iodoacetamide]
inhibition at 1000 µM (Pyrophosphorylase [2]): 44%

Compound: [Mn+2] [Mn++, manganese]
effectiveness as cation [6]: then Mn^++
Activity (Pyrophosphorylase [7]): 4.89 nmol
Activity (Pyrophosphorylase [7]; Mn++ = 100): 100%

Compound: CCN1C(=O)C=CC1=O [N-ethylmaleimide]
inhibition at 10 µM (Pyrophosphorylase [2]; 0.01 mM): 3%
inhibition at 100 µM (Pyrophosphorylase [2]): 46%
inhibition at 1000 µM (Pyrophosphorylase [2]): 72%

Compound: c1cnc2c(c1)ccc1cccnc12 [O-Phenanthroline, 1, 10-phenanthroline]
inhibition at 100 µM (Pyrophosphorylase [2]; read-out: Inhibition): 5%
inhibition at 1000 µM (Pyrophosphorylase [2]; read-out: Inhibition): 16%
inhibition (in words) (Pyrophosphorylase [2]; [10]): did not inhibit

Compound: O=c1ccn([C@@H]2O[C@H](COP(=O)(O)OP(=O)(O)O[C@H]3OC[C@@H](O)[C@H](O)[C@H]3O)[C@@H](O)[C@H]2O)c(=O)[nH]1 [UDP-xylose]
inhibition of labeling ([1]; even at 1 mM): None of these sugar nucleotides showed any inhibition of the labeling

Compound: O=c1ccn([C@@H]2O[C@H](COP(=O)(O)OP(=O)(O)O)[C@@H](O)[C@H]2O)c(=O)[nH]1 [UDP]
inhibition of labeling ([1]; nucleotides): very little inhibition of labeling

Compound: O=c1ccn([C@@H]2O[C@H](COP(=O)(O)OP(=O)(O)OP(=O)(O)O)[C@@H](O)[C@H]2O)c(=O)[nH]1 [UTP]
inhibition of labeling ([1]; nucleotides): very little inhibition of labeling
Vmax ([5]; UTP as substrate, at 10 mM GlcNAc-1-P): 4.8 nmol/min
Km ([5]; UTP as substrate, at 10 mM GlcNAc-1-P, read-out: Km): 2500 µM

Now from value to compound, other results behind:

inhibition at 100 µM (Pyrophosphorylase [2]; read-out: Inhibition): 21%
inhibition at 1000 µM (Pyrophosphorylase [2]; read-out: Inhibition): 62%
Compound: O[C@H](CS)[C@H](O)CS (racemic) [Dithiothreitol]

Activity (Pyrophosphorylase [3]): 0.6 nmol/min
Relative Activity (Pyrophosphorylase [3]): 3%
Compound: Nc1ncnc2c1ncn2[C@@H]1O[C@H](COP(=O)(O)OP(=O)(O)O[C@H]2O[C@H](CO)[C@@H](O)[C@H](O)[C@H]2O)[C@@H](O)[C@H]1O [ADP-Glc]

inhibition of labeling ([1]; nucleotides): very little inhibition of labeling
Compound: Nc1nc2c(ncn2[C@@H]2O[C@H](COP(=O)(O)OP(=O)(O)OP(=O)(O)O)[C@@H](O)[C@H]2O)c(=O)[nH]1 [GTP]

Activity (Pyrophosphorylase [4]): 5.28 nmol/min
Relative Activity (Pyrophosphorylase [4]): 100%
Vmax ([5]; at 1 mM UTP): 7.1 nmol/min
Km [5, 11]: 5500 µM
Compound: CC(=O)N[C@H]1[C@@H](OP(=O)(O)O)O[C@H](CO)[C@H](O)[C@@H]1O [GalNAc-1-P]
substrate preference, forward direction (Pyrophosphorylase [4]): GalNAc-1-P over GlcNAc-1-P; also recorded: prefers GalNAc-1-P slightly over GlcNAc-1-P

Activity (Pyrophosphorylase [4]): 4.83 nmol/min
Relative Activity (Pyrophosphorylase [4]): 91%
Vmax ([5]; at 1 mM UTP): 3.1 nmol/min
Km [5, 11]: 2000 µM
Compound: CC(=O)N[C@H]1[C@@H](OP(=O)(O)O)O[C@H](CO)[C@@H](O)[C@@H]1O [GlcNAc-1-P]

Activity (Pyrophosphorylase [3]): 1.3 nmol/min
Relative Activity (Pyrophosphorylase [3]): 7%
Compound: O=C(O)[C@H]1O[C@H](OP(=O)(O)OP(=O)(O)OC[C@H]2O[C@@H](n3ccc(=O)[nH]c3=O)[C@H](O)[C@@H]2O)[C@H](O)[C@@H](O)[C@H]1O [UDP-GalCOOH]

Activity (Pyrophosphorylase [3]): 1.4 nmol/min
Relative Activity (Pyrophosphorylase [3]): 7%
Compound: O=C(O)[C@H]1O[C@H](OP(=O)(O)OP(=O)(O)OC[C@H]2O[C@@H](n3ccc(=O)[nH]c3=O)[C@H](O)[C@@H]2O)[C@H](O)[C@@H](O)[C@@H]1O [UDP-GlcCOOH, UDP-glucuronic acid]
inhibition of labeling ([1]; even at 1 mM): None of these sugar nucleotides showed any inhibition of the labeling

Km [8, 12]: 50 µM
Vmax [8, 12]: 22.2 nmol/min
amount in UDP-GlcNAc area [9]: 7.9 µmol
radioactivity in UDP-GlcNAc area, share of total [9]: 79%
Activity (Pyrophosphorylase [3]): 13.0 nmol/min
Relative Activity (Pyrophosphorylase [3]): 66%
Compound: CC(=O)NC1C(OP(=O)(O)OP(=O)(O)OCC2OC(n3ccc(=O)[nH]c3=O)C(O)C2O)OC(CO)C(O)C1O (stereo not shown) [UDP-GlcNAc, UDP-N-acetylglucosamine]
inhibition of labeling ([1]; unlabeled UDP-GlcNAc 0.01 mM to 1 mM): labeling was efficiently blocked; also recorded: effectively inhibited the labeling of both subunits to about the same extent; also recorded: labeling is blocked
activity as substrate (in words) (sheep brain enzyme): most active

inhibition of labeling ([1]; nucleotides): a small effect
Compound: O=c1ccn([C@@H]2O[C@H](COP(=O)(O)O)[C@@H](O)[C@H]2O)c(=O)[nH]1 [UMP]

inhibition (in words) (Pyrophosphorylase [2]; even at 10 mM): nor did inorganic phosphate
Compound: O=P(O)(O)O [inorganic phosphate]

Km ([8]; at 1 mM UDP-GlcNAc): 70 µM
Vmax ([8]; at 1 mM UDP-GlcNAc): 20 nmol/min
Compound: O=P(O)(O)OP(=O)(O)O [inorganic pyrophosphate]
